BigSolDB 2.1
Each block holds one compound with its values, some of them ahead of it.

Compound: O=C(O)[C@@H]1C[C@@H](O)CN1
solubility (mole fraction) (in water, 293.15 K): 0.0483
solubility (mole fraction) (in water, 298.15 K): 0.0499
solubility (mole fraction) (in water, 303.15 K): 0.0525
solubility (mole fraction) (in water, 308.15 K): 0.0551
solubility (mole fraction) (in water, 313.15 K): 0.0585
solubility (mole fraction) (in water, 318.15 K): 0.0614

Compound: NC(CO)(CO)CO
solubility (mole fraction) (in methanol, 293.2 K): 0.0076
solubility (mole fraction) (in methanol, 298.2 K): 0.0092
solubility (mole fraction) (in methanol, 303.2 K): 0.0106
solubility (mole fraction) (in methanol, 308.2 K): 0.0124
solubility (mole fraction) (in methanol, 313.2 K): 0.0158

Compound: NCCS(=O)(=O)O
solubility (mole fraction) (in water, 298.15 K): 0.0143
solubility (mole fraction) (in water, 303.15 K): 0.0168
solubility (mole fraction) (in water, 308.15 K): 0.0199
solubility (mole fraction) (in water, 313.15 K): 0.0231
solubility (mole fraction) (in water, 318.15 K): 0.0269

Compound: Oc1cc(O)c2cc1Cc1cc(c(O)cc1O)Cc1cc(c(O)cc1O)Cc1cc(c(O)cc1O)C2
solubility (mole fraction) (in water, 278.15 K): 3.22e-06
solubility (mole fraction) (in water, 283.15 K): 4.29e-06
solubility (mole fraction) (in water, 288.15 K): 4.86e-06
solubility (mole fraction) (in water, 293.15 K): 6.26e-06
solubility (mole fraction) (in water, 298.15 K): 6.59e-06
solubility (mole fraction) (in water, 303.15 K): 7.16e-06
solubility (mole fraction) (in water, 308.15 K): 7.68e-06

Compound: O=C1Nc2ccccc2C1=O
solubility (mole fraction) (in PEG-400, 298.15 K): 0.0985
solubility (mole fraction) (in PEG-400, 308.15 K): 0.109
solubility (mole fraction) (in PEG-400, 318.15 K): 0.121
solubility (mole fraction) (in PEG-400, 328.15 K): 0.132
solubility (mole fraction) (in PEG-400, 338.15 K): 0.145
solubility (mole fraction) (in transcutol, 298.15 K): 0.52
solubility (mole fraction) (in transcutol, 308.15 K): 0.536
solubility (mole fraction) (in transcutol, 318.15 K): 0.557
solubility (mole fraction) (in transcutol, 328.15 K): 0.579
solubility (mole fraction) (in transcutol, 338.15 K): 0.594

Compound: CCC(C)C
solubility (mole fraction) (in water, 293.2 K): 1.24e-05

Compound: O=c1cc(Cl)[nH]c(=O)[nH]1
solubility (mole fraction) (in water, 298.15 K): 0.000603

Compound: CC1(C)S[C@@H]2[C@H](N)C(=O)N2[C@H]1C(=O)O
solubility (mole fraction) (in water, 274.15 K): 0.000132
solubility (mole fraction) (in water, 278.15 K): 0.000143
solubility (mole fraction) (in water, 283.15 K): 0.000159
solubility (mole fraction) (in water, 289.15 K): 0.000173
solubility (mole fraction) (in water, 293.15 K): 0.000183
solubility (mole fraction) (in water, 298.15 K): 0.000203
solubility (mole fraction) (in water, 303.15 K): 0.000226

More lines, now with the values ahead:

solubility (mole fraction) (in acetic acid, 293.2 K): 0.00298
solubility (mole fraction) (in acetic acid, 303.2 K): 0.00394
solubility (mole fraction) (in acetic acid, 313.2 K): 0.00504
solubility (mole fraction) (in acetic acid, 323.2 K): 0.00658
solubility (mole fraction) (in acetic acid, 333.2 K): 0.00816
solubility (mole fraction) (in acetic acid, 343.2 K): 0.0103
solubility (mole fraction) (in acetic acid, 353.2 K): 0.0127
solubility (mole fraction) (in acetic acid, 363.2 K): 0.0155
Compound: O=C1c2ccccc2C(=O)N1O

solubility (mole fraction) (in methanol, 293.15 K): 0.00941
solubility (mole fraction) (in methanol, 298.15 K): 0.0109
solubility (mole fraction) (in methanol, 303.15 K): 0.0128
solubility (mole fraction) (in methanol, 308.18 K): 0.015
solubility (mole fraction) (in methanol, 313.15 K): 0.0175
solubility (mole fraction) (in methanol, 318.15 K): 0.02
Compound: CO[C@H]1O[C@H](CO)[C@@H](O)[C@H](O)[C@H]1O

solubility (mole fraction) (in acetone, 278.15 K): 0.00654
solubility (mole fraction) (in acetone, 283.15 K): 0.00793
solubility (mole fraction) (in acetone, 288.15 K): 0.0098
solubility (mole fraction) (in acetone, 293.15 K): 0.012
solubility (mole fraction) (in acetone, 298.15 K): 0.0148
solubility (mole fraction) (in acetone, 303.15 K): 0.0184
solubility (mole fraction) (in acetone, 308.15 K): 0.023
solubility (mole fraction) (in acetone, 313.15 K): 0.0266
solubility (mole fraction) (in acetone, 318.15 K): 0.0344
Compound: CCCN1CCCC[C@H]1C(=O)Nc1c(C)cccc1C

solubility (mole fraction) (in water, 298.15 K): 1.5e-07
solubility (mole fraction) (in water, 303.15 K): 1.7e-07
solubility (mole fraction) (in water, 308.15 K): 1.9e-07
solubility (mole fraction) (in water, 313.15 K): 2e-07
solubility (mole fraction) (in water, 318.15 K): 2.2e-07
Compound: COc1cc(/C=C/C(=O)CC(=O)/C=C/c2ccc(O)c(OC)c2)ccc1O

solubility (mole fraction) (in methanol, 298.2 K): 0.0379
solubility (mole fraction) (in propylene glycol, 298.2 K): 0.0605
solubility (mole fraction) (in water, 298.2 K): 1.58e-05
Compound: Cc1ccc(-c2ncc(Cl)cc2-c2ccc(S(C)(=O)=O)cc2)cn1

solubility (mole fraction) (in water, 293.65 K): 6.28e-05
solubility (mole fraction) (in water, 296.05 K): 7.6e-05
solubility (mole fraction) (in water, 303.05 K): 0.000133
solubility (mole fraction) (in water, 308.65 K): 0.000197
solubility (mole fraction) (in water, 323.35 K): 0.000556
solubility (mole fraction) (in water, 328.45 K): 0.000747
solubility (mole fraction) (in water, 333.15 K): 0.000936
Compound: Nc1ccc(Cl)nn1

solubility (mole fraction) (in ethanol, 298.15 K): 0.000214
solubility (mole fraction) (in water, 298.15 K): 4.01e-07
Compound: CN1C(C(=O)Nc2ccccn2)=C(O)c2ccccc2S1(=O)=O

solubility (mole fraction) (in water, 283.15 K): 0.00531
solubility (mole fraction) (in water, 288.15 K): 0.00555
solubility (mole fraction) (in water, 293.15 K): 0.00625
solubility (mole fraction) (in water, 298.15 K): 0.00681
solubility (mole fraction) (in water, 303.15 K): 0.00724
solubility (mole fraction) (in water, 308.15 K): 0.00787
solubility (mole fraction) (in water, 313.15 K): 0.00837
Compound: CSCC[C@H](N)C(=O)O

solubility (mole fraction) (in acetone, 298.15 K): 0.0662
solubility (mole fraction) (in dichloromethane, 298.15 K): 0.175
solubility (mole fraction) (in diisopropyl ether, 298.15 K): 3.71e-05
solubility (mole fraction) (in ethanol, 298.15 K): 0.0341
solubility (mole fraction) (in ethyl acetate, 298.15 K): 0.0263
solubility (mole fraction) (in isopropanol, 298.15 K): 0.0252
Compound: CC(C)(C)C(=O)OCOP(=O)(COCCn1cnc2c(N)ncnc21)OCOC(=O)C(C)(C)C
